According to patent publication US8658649B2, “Kinase inhibitor” (Sanofi, priority 2006, dated 2014):
pIC50: −log10 of the molar value. Several values for one entry are separate records, joined by “and”; a condition that tells them apart may be missing. Equal values may be shown once.

What was measured:
DLCL-2 = test: Viability assay of liquid tumor cell lines (MTS); format: cell-based; settings: DLCL-2 (B-NHL), N = 4
Protocol: (§1) This method is to determine the viability of a liquid tumor cell line following treatment with a test compound. Tumor cells are maintained in suspension at log phase growth. On the day of use, cells are resuspended to a density of 0.05 to 0.1 million/ml and cells are incubated in 96 well plate with the test compounds for 96 hours. Viability of cells was measured by incubating cells with Promega's MTS reagent. The viability of the cell is proportional to the change in absorbance at 490 nm. By comparing the absorbance between control and compound-treated cells, the impact of the test compounds on the cell viability is determined as a percent of the control cell viability.
(§2) Harvest cells in complete RPMI from log-phase cultures at densities of approximately 0.3-0.7 million/ml. Count cells and adjust to 0.1 million/ml in phenol red free cRPMI (For fast growing cells with doubling time of equal or less than 24 hours, e.g. K562, use 0.05 million/ml instead to avoid over-growing).
(§3) Transfer triplicates of 100 μl of cells to the wells of 96-well clear plates for a total of 10000 cells/well. Note that each well already contains 10 μl of 10× concentrated test compound prepared as above.
(§4) Incubate cells for 72-96 hours at 37° C. in a tissue culture incubator containing 5% CO2.
(§5) 1. Thaw the Promega's MTS reagent and add 20 ul to each well with a repeat pipetor.
(§6) 4. Incubate at 370 C until the absorbance at 490 nm for the control cells is >1.5.
(§7) 5. Calculate the averaged compound-treated cell data as a percent of the averaged control cell data as follows: (Compound-treated value/control value)*100=% of control value Results: […]

DOHH-2 = test: Viability assay of liquid tumor cell lines (MTS); format: cell-based; settings: DOHH-2 (B-NHL), N = 4
Protocol: as §1, §2, §3, §4, §5, §6, §7

Granta-519 = test: Viability assay of liquid tumor cell lines (MTS); format: cell-based; settings: Granta-519 (MCL), N = 4
Protocol: as §1, §2, §3, §4, §5, §6, §7

HL-60 = test: Viability assay of liquid tumor cell lines (MTS); format: cell-based; settings: HL-60 (AML), N = 4
Protocol: as §1, §2, §3, §4, §5, §6, §7

JVM-2 = test: Viability assay of liquid tumor cell lines (MTS); format: cell-based; settings: JVM-2 (B-CLL), N = 4, listed as A003397769, 10 µM
Protocol: as §1, §2, §3, §4, §5, §6, §7

Jeko-1 = test: Viability assay of liquid tumor cell lines (MTS); format: cell-based; settings: Jeko-1 (MCL), N = 4
Protocol: as §1, §2, §3, §4, §5, §6, §7

Jurkat = test: Viability assay of liquid tumor cell lines (MTS); format: cell-based; settings: Jurkat (T-ALL), N = 4; for pIC50: MTS assay
Protocol: as §1, §2, §3, §4, §5, §6, §7

Jurl-MK1 = test: Viability assay of liquid tumor cell lines (MTS); format: cell-based; settings: Jurl-MK1 (CML), N = 4
Protocol: as §1, §2, §3, §4, §5, §6, §7

K562 = test: Viability assay of liquid tumor cell lines (MTS); format: cell-based; settings: K562 (CML), N = 4
Protocol: as §1, §2, §3, §4, §5, §6, §7

KG-1 = test: Viability assay of liquid tumor cell lines (MTS); format: cell-based; settings: KG-1 (AML), N = 4
Protocol: as §1, §2, §3, §4, §5, §6, §7

L-363 = test: Viability assay of liquid tumor cell lines (MTS); format: cell-based; settings: L-363 (MM), N = 4
Protocol: as §1, §2, §3, §4, §5, §6, §7

ML-2 = test: Viability assay of liquid tumor cell lines (MTS); format: cell-based; settings: ML-2 (AML), N = 4
Protocol: as §1, §2, §3, §4, §5, §6, §7

Nalm-6 = test: Viability assay of liquid tumor cell lines (MTS); format: cell-based; settings: Nalm-6 (B-ALL), N = 4
Protocol: as §1, §2, §3, §4, §5, §6, §7

RPMI8226 = test: Viability assay of liquid tumor cell lines (MTS); format: cell-based; settings: RPMI8226 (MM), N = 4
Protocol: as §1, §2, §3, §4, §5, §6, §7

[1] = test system: hematological malignant cell lines; test: Viability assay (MTS), panel of hematological malignant cell lines; format: cell-based
Protocol: as §1, §2, §3, §4
1. […]
4. Incubate at 370 C until the absorbance at 490 nm for the control cells is >1.5. […]

[2] = test system: Collagen-induced arthritis (CIA); test: Rat collagen induced arthritis, therapeutic dosing; format: in vivo
Protocol: Immunization and Challenge: Female Lewis rats were immunized on day 0 and challenged on day 7 with cII from bovine nasal mixed with Freund's incomplete adjuvant at a final collagen concentration of 1.0 mg/ml. The animals were injected at the base of the tail with 400 μg of cII.
Therapeutic Dosing Regimen: The compound of Formula I (10 and 30 mg/kg, p.o., b.i.d.) was orally administered starting on day 12 and continued through day 21.
Joint Pathology Ankle joint swelling was measured to the nearest 0.01 mm by using electronic digital calipers. Measurements were recorded 7 times throughout the study starting on day 6 and ending on day 21. Body weights were recorded on the same days. On day 21, hind paws were removed at the hairline just above the ankle and fixed in 10% neutral buffered formalin.
MicroCT analysis: Ankle joints were examined using a cone-beam μCT scanner. […] In ankle joints, the ratio of bone surface to bone volume, describing the complexity of bone surface in a certain volume, was analyzed.
Statistical Analysis For joint swelling/inflammation, data were analyzed using Everstat v.5 software and a 2-way repeated measure ANOVA with Dunnett's post test. MicroCT data were analyzed by Everstat using a 1-way ANOVA and Newman-Keuls multiple comparison test. […]

- pIC50 (DOHH-2; Homo sapiens, MTS assay): 5.35
- pIC50 (Granta-519; Homo sapiens, MTS assay): 5.47
- pIC50 (Jeko-1; Homo sapiens, MTS assay): 5.51
- pIC50 (Jurkat; Homo sapiens, Jurkat): 5.17
- pIC50 (Jurkat; listed as A003397769): < 5.00
- pIC50 (KG-1; Homo sapiens, MTS assay): 5.72
- pIC50 (L-363; Homo sapiens, MTS assay): 5.26
- pIC50 (ML-2; Homo sapiens, MTS assay): < 5.00
- pIC50 (Nalm-6; Homo sapiens, MTS assay): 5.26
- pIC50 (RPMI8226; Homo sapiens, RPMI-8226, MTS assay): < 5.00
Structure (SMILES): CCc1c(-c2ccc(C(C)(C)O)cc2)[nH]c2nccnc12 [compound of Formula I, 2-[4-(7-Ethyl-5H-pyrrolo[2,3-b]pyrazin-6-yl)-phenyl]-propan-2-ol]
- % Inhibition at max. conc. (10 uM) (DLCL-2): 0%
- % Inhibition at max. conc. (10 uM) (DOHH-2; 10 uM): 75%
- % Inhibition at max. conc. (10 uM) (Granta-519; 10 uM): 67%
- % Inhibition at max. conc. (10 uM) (HL-60): 35%
- % Inhibition at max. conc. (10 uM) (JVM-2): 60% and 59%
- % Inhibition at max. conc. (10 uM) (Jeko-1; 10 uM): 97%
- % Inhibition at max. conc. (10 uM) (Jurkat; 10 uM): 43%
- % Inhibition at max. conc. (10 uM) (Jurl-MK1): 28%
- % Inhibition at max. conc. (10 uM) (K562): 21%
- % Inhibition at max. conc. (10 uM) (KG-1; 10 uM): 91%
- % Inhibition at max. conc. (10 uM) (L-363; 10 uM): 61%
- % Inhibition at max. conc. (10 uM) (ML-2; 10 uM): 28%
- % Inhibition at max. conc. (10 uM) (Nalm-6; 10 uM): 84%
- % Inhibition at max. conc. (10 uM) (RPMI8226; 10 uM): 36%
- anti-proliferation activity in the two MCL cell lines ([1]; Jeko-1 and Granta-519): consistently active
- hematological malignant cell lines against which the compound is inhibitory ([1]; MTS assay, panel of Table 4): 6 out of 15
- bone erosion (ratio of bone surface to bone volume), MicroCT ([2]; 10 mg/kg or 30 mg/kg, therapeutic dosing, vs vehicle): significant decrease in bone erosion
- ankle swelling/inflammation ([2]; 10 and 30 mg/kg p.o. b.i.d. from day 12, day 15-21): significantly reduced ankle swelling/inflammation
